From patent US7087626B2, “Pyrrole derivatives as pharmaceutical agents” (Eli Lilly and Company, priority 2001, dated 2006)

Tests used:
[1] = system: TGF-β dependent luciferase production in Mv1Lu C1 cells (p3TP-Lux reporter); assay: MV1LU p3TP-Lux assay; format: cell-based; conditions: TGF-β1 10 pM, 16-20 hrs
Excerpt: A stable Mv1Lu clone (C1) containing the p3TP-Lux reporter was created by standard transfection and puromycin selection protocols. This stable clone was used to screen the example compounds for their ability to inhibit TGF-β dependent luciferase production as briefly described below: • 1. Plated Mv1Lu C1 cells in Wallac™ Black Isoplates • 2. Allowed cells to adhere overnight. • 3. Removed media and replaced with 0.5% FBS DMEM media • 4. Added the compound dilution series in 0.5% FBS/DMEM containing 1% DMSO such that the final compound concentration ranged from 20 uM to 0.1 nM and the final DMSO concentration was 0.2%. • 5. Incubated at 37° C./5% CO2 for 2 hrs. • 6. Added 0.5% FBS/DMEM as control or TGF-β1 diluted in 0.5% FBS/DMEM (final concentration of 10 pM) to the −/+ TGF-β wells respectively • 7. Incubated for 16-20 hrs. at 37° C./5% CO2 • 8. Removed media and rinsed 1× with PBS. • 9. Removed PBS and lysed the cells with 1× Passive Lysis Buffer (Promega) at room temperature. • 10. Counted relative luciferase activity on the MicroBeta JET by injecting Luciferase Assay Reagent II (PROMEGA).
The use of the above assay in measuring TGF-β responsive activity is described in Wrana, et al. Cell 71: 1003-1014 (1992).

p38α/SAPK2α = target: T1, p38α/SAPK2α (Homo sapiens, UniProt Q16539); assay: p38α in vitro kinase assay; format: biochemical; conditions: 5 nM p38α, 62.5 uM EGFR substrate, 100 uM ATP, 30° C., 40 min
T1 construct: purchased Upstate Biotechnology 14-251
Method: p38α in vitro Kinase Assay
Active p38α/SAPK2α was purchased from Upstate Biotechnology (cat#14-251). A known p38α substrate from EGFR was used in the assay (Young, et al. (1997) JBC 272: 12116-12121).
Reactions were performed in 1× kinase buffer (25 mM Tris-HCl pH 7.5, 5 mM β-glycerophosphate, 2 mM DTT, 0.1 mM Na3VO4, 10 mM MgCl2, 1 uM Microcystin) with 5 nM p38α, 62.5 uM substrate, 40 uM to 0.2 nM compound dilution series in 1×KB/16% DMSO (final 4% DMSO concentration). Reactions were started by addition of 100 uM ATP (final concentration) with 1 uCi ^33P-γ-ATP in 1×KB and incubated at 30° C. for 40 min. Reactions were stopped with H3PO4 and quantitated on Millipore PH phosphocellulose filter plates by liquid scintillation counting on a MicroBeta JET.

[2] = target: T2, TGF-β Type II (RII WT) receptor (Homo sapiens, UniProt P37173); assay: TGF-β Receptor II (RII WT) in vitro kinase reaction; format: biochemical; conditions: 6×-HIS cytoplasmic kinase domain, 4 uM ATP, 30° C., 40 min
T2 construct: The 6×-HIS tagged cytoplasmic kinase domain of each receptor was expressed and purified from Sf9 insect cell lysates; 6xHis; made in house; host or cells: Sf9 insect cells
T2 sequence (P37173 244-544 limits assumed): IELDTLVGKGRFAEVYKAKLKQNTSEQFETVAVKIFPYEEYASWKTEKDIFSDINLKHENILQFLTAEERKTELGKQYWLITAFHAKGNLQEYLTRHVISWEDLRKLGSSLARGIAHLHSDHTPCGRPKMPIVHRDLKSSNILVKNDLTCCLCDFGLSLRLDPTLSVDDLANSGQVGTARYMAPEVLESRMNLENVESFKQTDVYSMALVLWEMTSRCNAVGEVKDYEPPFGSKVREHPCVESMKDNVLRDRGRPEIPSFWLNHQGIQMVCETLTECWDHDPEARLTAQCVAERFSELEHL
Method: (§1) TGF-β Receptor I and II Purification and in vitro Kinase Reactions
(§2) For TGF-β Type I (RIT204D) and Type II (RII WT) Receptors: The 6×-HIS tagged cytoplasmic kinase domain of each receptor was expressed and purified from Sf9 insect cell lysates as briefly described below:
(§3) Cell pellets after 48-72 hrs of infection were lysed in lysis buffer (LB: 50 mM Tris pH 7.5, 150 mM NaCl, 50 mM NaF, 0.5% NP40 with freshly added 20 mM, β-mercaptoethanol, 10 mM imidazole, 1 mM PMSF, 1×EDTA-free Complete Protease Inhibitor (Boehringer Mannheim).
Cell lysates were clarified: by centrifugation and […] filtered prior to purification by Ni/NTA affinity chromatography (Qiagen).
Equilibrate with 10 CV of LB, load sample, wash with 10 CV RIPA buffer (50 mM Tris pH 7.5, 150 mM NaCl, 1% NP40, 1 mM EDTA, 0.25% sodium deoxycholate, added fresh 20 mM β-mercaptoethanol, 1 mM PMSF), wash with 10 CV LB, wash with 10 CV 1×KB (50 mM Tris pH 7.5, 150 mM NaCl, 4 mM MgCl2, 1 mM NaF, 2 mM β-mercaptoethanol), elute with a linear gradient of 1×KB containing 200 mM Imidazole.
Both enzymes were approximately 90% pure and had autophosphorylation activity.
(§4) Reactions: 170-200 nM enzyme in 1×KB, compound dilution series in 1×KB/16% DMSO (20 uM to 1 nM final concentration with 4% DMSO final concentration), reactions started by adding ATP mix (4 uM ATP/1 uCi ^33P-[…]-ATP final concentrations) in 1×KB.
(§5) Reactions were incubated at 30° C. for 1 hr RIT204D or 40 min for RII WT. Reactions were stopped and quantitated using standard TCA/BSA precipitation onto Millipore FB glass fiber filter plates and by liquid scintillation counting on a MicroBeta JET.

[3] = target: T3, TGF-β Type I (RIT204D) receptor (Homo sapiens, UniProt P36897, T204D); assay: TGF-β Receptor I (RIT204D) in vitro kinase reaction; format: biochemical; conditions: 6×-HIS cytoplasmic kinase domain, 4 uM ATP, 30° C., 1 hr
T3 construct: The 6×-HIS tagged cytoplasmic kinase domain of each receptor was expressed and purified from Sf9 insect cell lysates; 6xHis; made in house; host or cells: Sf9 insect cells
T3 sequence (P36897 148-503 T204D limits assumed): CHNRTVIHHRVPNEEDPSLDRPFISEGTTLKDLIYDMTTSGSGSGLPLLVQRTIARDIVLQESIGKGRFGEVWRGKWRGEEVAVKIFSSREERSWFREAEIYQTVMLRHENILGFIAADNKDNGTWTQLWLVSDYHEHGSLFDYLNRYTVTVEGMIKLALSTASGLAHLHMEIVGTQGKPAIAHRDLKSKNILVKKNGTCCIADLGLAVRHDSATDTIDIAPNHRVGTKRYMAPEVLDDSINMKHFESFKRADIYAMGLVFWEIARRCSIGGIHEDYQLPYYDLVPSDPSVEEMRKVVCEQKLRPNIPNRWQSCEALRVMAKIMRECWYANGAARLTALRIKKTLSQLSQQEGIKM
Method: as §1, §2, §3, §4, §5

T1 sequence (Q16539 whole entry): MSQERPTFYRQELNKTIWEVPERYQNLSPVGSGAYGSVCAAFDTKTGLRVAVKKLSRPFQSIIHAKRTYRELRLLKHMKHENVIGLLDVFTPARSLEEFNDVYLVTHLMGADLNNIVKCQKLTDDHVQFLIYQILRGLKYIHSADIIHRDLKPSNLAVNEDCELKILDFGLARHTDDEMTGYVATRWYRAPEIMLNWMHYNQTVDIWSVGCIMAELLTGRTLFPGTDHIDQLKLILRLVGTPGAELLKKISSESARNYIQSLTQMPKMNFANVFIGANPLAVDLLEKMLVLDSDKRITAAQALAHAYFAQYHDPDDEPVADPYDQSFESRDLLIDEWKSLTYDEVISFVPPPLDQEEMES

Compound | IC50 [1] | IC50 (p38α/SAPK2α) | also measured
Cc1cccc(-c2nn3c(c2-c2ccnc4ccccc24)CC(c2ccc(F)cc2)C3)n1 (single isomer, unassigned) [4-[5-(4-Fluoro-phenyl)-2-(6-methyl-pyridin-2-yl)-5,6-dihydro-4H-pyrrolo[1,2-b]pyrazol-3-yl]-quinoline] | < 20 µM | – | –
Cc1cccc(-c2nn3c(c2-c2cccc4ccccc24)CCC3)n1 [2-(6-methyl-pyridin-2-yl)-3-naphthalen-1-yl-5,6-dihydro-4H-pyrrolo[1,2-b]pyrazole] | < 20 µM | – | –
CN(C)CC(=O)Nc1ccc2c(-c3c(-c4ccccn4)nn4c3CCC4)ccnc2c1 [2-Dimethylamino-N-[4-(2-pyridin-2-yl-5,6-dihydro-4H-pyrrolo[1,2-b]pyrazol-3-yl)-quinolin-7-yl]-acetamide] | – | < 20 µM | –
Cc1cccc(-c2nn3c(c2-c2ccnc4ccc(C(C)(C)O)cc24)CCC3)n1 [2-{4-[2-(6-Methyl-pyridin-2-yl)-5,6-dihydro-4H-pyrrolo[1,2-b]pyrazol-3-yl]-quinolin-6-yl}-propan-2-ol] | < 20 µM | – | –
Clc1cc(-c2c(-c3ccccn3)nn3c2CCC3)ccn1 [3-(2-Chloro-pyridin-4-yl)-2-pyridin-2-yl-5,6-dihydro-4H-pyrrolo[1,2-b]pyrazole] | < 20 µM | – | –
Cc1cccc(-c2nn3c(c2-c2ccc4c(c2)OCO4)CCC3)n1 [3-Benzo[1,3]dioxol-5-yl-2-(6-methyl-pyridin-2-yl)-5,6-dihydro-4H-pyrrolo[1,2-b]pyrazole] | – | < 20 µM | –
c1ccc(-c2nn3c(c2-c2ccc4ccccc4c2)CCC3)nc1 [3-Naphthalen-2-yl-2-pyridin-2-yl-5,6-dihydro-4H-pyrrolo[1,2-b]pyrazole] | – | < 20 µM | –
OCCCSc1ccc2c(-c3c(-c4ccccn4)nn4c3CCC4)ccnc2c1 [3-[4-(2-Pyridin-2-yl-5,6-dihydro-4H-pyrrolo[1,2-b]pyrazol-3-yl)-quinolin-7-ylsulfanyl]-propan-1-ol] | – | < 20 µM | IC50 [2]: < 20 µM
CNC(=O)c1ccc2c(-c3c(-c4ccccn4)nn4c3CCC4)ccnc2c1 [4-(2-Pyridin-2-yl-5,6-dihydro-4H-pyrrolo[1,2-H]pyrazol-3-yl)-quinoline-7-carboxylic acid methylamide] | – | < 20 µM | IC50 [3]: < 20 µM; IC50 [2]: < 20 µM
NNC(=O)c1ccc2nccc(-c3c(-c4ccccn4)nn4c3CCC4)c2c1 [4-(2-Pyridin-2-yl-5,6-dihydro-4H-pyrrolo[1,2-b]pyrazol-3-yl)-quinoline-6-carboxylic acid hydrazide] | < 20 µM | – | –
O=C(NCCc1c[nH]cn1)c1ccc2c(-c3c(-c4ccccn4)nn4c3CCC4)ccnc2c1 [4-(2-Pyridin-2-yl-5,6-dihydro-4H-pyrrolo[1,2-b]pyrazol-3-yl)-quinoline-7-carboxylic acid [2-(1H-imidazol-4-yl)-ethyl]-amide] | – | < 20 µM | –
OCC1CCc2c(-c3ccnc4ccccc34)c(-c3ccccn3)nn21 (stereo not drawn) [4-(6-Hydroxymethyl-2-pyridin-2-yl-5,6-dihydro-4H-pyrrolo[1,2-b]pyrazol-3yl)-quinoline] | < 20 µM | – | –
Fc1ccc(-c2nn3c(c2-c2ccnc4ccccc24)CCC3)cc1 [4-[2-(4-Fluoro-phenyl)-5,6-dihydro-4H-pyrrolo[1,2-b]pyrazol-3-yl]-quinoline] | – | < 20 µM | –
COC(=O)c1ccc2nccc(-c3c(-c4cccc(C)n4)nn4c3CCC4)c2c1 [4-[2-(6-Methyl-pyridin-2-yl)-5,6-dihydro-4H-pyrrolo[1,2-b]pyrazol-3-yl]-quinoline-6-carboxylic acid methyl ester] | < 20 µM | – | –
Cc1cccc(-c2nn3c(c2-c2ccnc4ccc(C(=O)O)cc24)CCC3)n1 [4-[2-(6-Methyl-pyridin-2-yl)-5,6-dihydro-4H-pyrrolo[1,2-b]pyrazol-3-yl]-quinoline-6-carboxylic acid] | – | < 20 µM | –
Cc1cccc(-c2nn3c(c2-c2ccnc4ccc(-c5ccc(F)cc5)cc24)CCC3)n1 [6-(4-Fluoro-phenyl)-4-[2-(6-methyl-pyridin-2-yl)-5,6-dihydro-4H-pyrrolo[1,2-b]pyrazol-3-yl]-quinoline] | – | < 20 µM | –
CSc1ccc2nccc(-c3c(-c4ccccn4)nn4c3CCC4)c2c1 [6-Methylsulfanyl-4-(2-pyridin-2-yl-5,6-dihydro-4H-pyrrolo[1,2-b]pyrazol-3-yl)-quinoline] | – | < 20 µM | –
c1ccc(-c2nn3c(c2-c2ccnc4cc(OCCCn5ccnc5)ccc24)CCC3)nc1 [7-(3-Imidazol-1-yl-propoxy)-4-(2-pyridin-2-yl-5,6-dihydro-4H-pyrrolo[1,2-b]pyrazol-3-yl)-quinoline] | – | < 20 µM | –
Cc1cccc(-c2nn3c(c2-c2ccnc4cc(N)ccc24)CCC3)n1 [7-Amino-4-[2-(6-Methyl-pyridin-2-yl)-5,6-dihydro-4H-pyrrolo[1,2-b]pyrazol-3-yl]-quinoline] | – | < 20 µM | –
COc1ccc2c(-c3c(-c4ccccn4)nn4c3CCC4)ccnc2c1 [7-Methoxy-4-(2-pyridin-2-yl-5,6-dihydro-4H-pyrrolo[1,2-b]pyrazol-3-yl)-quinoline] | – | < 20 µM | –
CN1CCN(CCCOc2ccc3c(-c4c(-c5ccccn5)nn5c4CCC5)ccnc3c2)CC1 [7-[3-(4-Methyl-piperazin-1-yl)-propoxy]-4-(2-pyridin-2-yl-5,6-dihydro-4H-pyrrolo[1,2-b]pyrazol-3-yl)-quinoline] | – | < 20 µM | –
Cc1cccc(-c2nn3c(c2-c2ccc(F)cc2)CC[C@@H]3CC#N)n1 [(R)-[3-(4-Fluoro-phenyl)-2-(6-methyl-pyridin-2-yl)-5,6-dihydro-4H-pyrrolo[1,2-b]pyrazol-6-yl]-acetonitrile] | – | < 20 µM | –
CN(C)CCNC(=O)COc1ccc2c(-c3c(-c4ccccn4)nn4c3CCC4)ccnc2c1 [N-(2-dimethylamino-ethyl)-2-[4-(2-pyridin-2-yl-5,6-dihydro-4H-pyrrolo[1,2-b]pyrazol-3-yl)-quinolin-7-yloxy]-acetamide] | – | – | IC50 [3]: < 20 µM; IC50 [2]: < 20 µM
